Reference: patent publication US20250313563A1, “GLYCOGEN SYNTHASE KINASE 3 INHIBITORS AND USES THEREOF” (The Broad Institute, Inc., priority 2022, published 2025)
Read-outs that look alike come from different tables or passages of the source.

Experiments:
[1] = biological target: GSK3α (GST-full length GSK3α) (Homo sapiens (Human), UniProt P49840); assay: GSK3α TR-FRET kinase assay; format: biochemical
Method in brief: (§1)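 IC50s came from the normalized 665/615 TR-FRET ratio after Tb-anti-pSer641 antibody and streptavidin-d2 detection of phosphorylated biotin-glycogen synthase peptide (200 nM). ATP was 4 μM for GSK3α, 2 μM for GSK3b, or 1 mM; 1 nM enzyme, 100 min, ambient, pH 7.5, after 30-min compound preincubation.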

[2] = biological target: GSK3b (GST-full length GSK3b) (Homo sapiens (Human), UniProt P49841); assay: GSK3b TR-FRET kinase assay; format: biochemical
Method in brief: as §1

[3] = 1 nM GSK3α, 4 μM ATP, 30 minute preincubation, Table 16, read-out: GSK3-A TR-FRET BIOCHEMICAL (TR-FRET), IC50
[4] = 1 nM GSK3b, 2 μM ATP, 30 minute preincubation, Table 16, read-out: GSK3-B TR-FRET BIOCHEMICAL (TR-FRET), IC50
[5] = GSK3-A (TR-FRET 1 mM ATP), GMean, IC50, 1 mM ATP, geometric mean
[6] = GSK3-B (TR-FRET 1 mM ATP), GMean, IC50, 1 mM ATP, geometric mean
[7] = read-out: GSK3-A (TR-FRET 1 mM ATP), GMean, IC50, 1 mM ATP, geometric mean
[8] = read-out: GSK3-B (TR-FRET 1 mM ATP), GMean, IC50, 1 mM ATP, geometric mean

GSK3α (GST-full length GSK3α), sequence (P49840 whole entry): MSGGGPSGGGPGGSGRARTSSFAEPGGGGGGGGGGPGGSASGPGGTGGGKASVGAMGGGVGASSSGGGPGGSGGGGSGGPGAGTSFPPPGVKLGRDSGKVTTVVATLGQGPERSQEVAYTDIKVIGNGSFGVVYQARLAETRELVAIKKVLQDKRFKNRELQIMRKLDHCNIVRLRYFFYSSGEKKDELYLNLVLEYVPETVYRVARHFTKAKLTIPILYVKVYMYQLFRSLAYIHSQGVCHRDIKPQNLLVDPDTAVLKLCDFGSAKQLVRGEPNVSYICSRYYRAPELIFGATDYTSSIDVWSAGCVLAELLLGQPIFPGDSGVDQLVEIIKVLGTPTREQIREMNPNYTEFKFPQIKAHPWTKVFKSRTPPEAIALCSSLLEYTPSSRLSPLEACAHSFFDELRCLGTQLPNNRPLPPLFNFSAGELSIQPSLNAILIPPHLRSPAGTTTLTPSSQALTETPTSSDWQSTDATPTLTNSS
GSK3b (GST-full length GSK3b), sequence (P49841 whole entry): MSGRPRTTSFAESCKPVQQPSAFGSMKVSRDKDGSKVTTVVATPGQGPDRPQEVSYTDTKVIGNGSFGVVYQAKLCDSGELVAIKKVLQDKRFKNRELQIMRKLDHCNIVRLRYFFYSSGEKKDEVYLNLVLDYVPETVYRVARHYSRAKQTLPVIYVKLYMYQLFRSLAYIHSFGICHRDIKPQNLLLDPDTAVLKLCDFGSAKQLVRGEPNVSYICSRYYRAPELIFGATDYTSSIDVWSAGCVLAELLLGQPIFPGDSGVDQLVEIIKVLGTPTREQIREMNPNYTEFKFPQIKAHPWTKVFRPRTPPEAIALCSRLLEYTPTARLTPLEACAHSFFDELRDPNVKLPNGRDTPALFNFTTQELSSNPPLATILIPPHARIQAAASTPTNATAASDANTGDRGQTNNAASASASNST

IC50 [1, 3] [µM] | IC50 [2, 4] [µM] | Structure (SMILES) | other results
0.1 to 1 | 1 to 5 | CCC1(c2cccc(-c3c(C)nnn3C)c2)C2=C(CC(C)(C)C2=O)Nc2n[nH]cc21 (centres unmarked) [Compound 950815] | 
> 5 | > 5 | CC[C@]1(c2cccc(C3CC3)c2)C2=C(CC(C)(C)NC2=O)Nc2n[nH]cc21 [Compound 950817] | 
0.1 to 1 | 1 to 5 | CCC1(c2cccc(-c3cc(C)nn3C)c2)C2=C(CC(C)(C)C2=O)Nc2n[nH]cc21 (centres unmarked) [Compound 950818] | 
0.1 to 1 | 1 to 5 | CC[C@@]1(c2cccc(-c3cnn(C)c3)c2)C2=C(CC(C)(C)C2=O)Nc2n[nH]cc21 [Compound 950819] | 
0.1 to 1 | 0.1 to 1 | CC[C@]1(c2cccc(-c3ccnn3-c3ccc(F)cc3)c2)C2=C(CC(C)(C)NC2=O)Nc2n[nH]cc21 [Compound 950822] | 
≤ 0.1 | ≤ 0.1 | CC[C@]1(c2cccc(-c3ccnn3C3CC3(F)F)c2)C2=C(CC(C)(C)NC2=O)Nc2n[nH]cc21 (some centres unmarked) [Compound 950824] | IC50 [1, 5]: 0.1 to 1 µM; IC50 [2, 6]: 0.1 to 1 µM
> 5 | > 5 | CCC1(c2cccc(-c3c(C)cnc4ccccc34)c2)C2=C(CC(C)(C)NC2=O)Nc2n[nH]cc21 (centres unmarked) [Compound 950825] | 
> 5 | > 5 | CCC1(c2cccc(-c3cnn(C)c3)c2)C2=C(CC(C)(C)C2=O)Nc2n[nH]cc21 (centres unmarked) [Compound 950826] | 
> 5 | > 5 | CC[C@@]1(c2cccc(-c3cc(C)nn3C)c2)C2=C(CC(C)(C)C2=O)Nc2n[nH]cc21 [Compound 950827] | 
≤ 0.1 | 0.1 to 1 | CC[C@]1(c2cccc(C3CC3)c2)C2=C(CC(C)(C)NC2=O)Nc2n[nH]cc21 [Compound 950828] | IC50 [1, 7]: 1 to 5 µM; IC50 [2, 8]: > 5 µM
≤ 0.1 | 0.1 to 1 | CC[C@]1(c2cccc(-c3cnn4cccnc34)c2)C2=C(CC(C)(C)NC2=O)Nc2n[nH]cc21 [Compound 950830] | 
≤ 0.1 | 0.1 to 1 | CC[C@@]1(c2cccc(C(F)(F)F)c2)C2=C(CCC2=O)Nc2n[nH]cc21 [Compound 951565] | 
> 5 | > 5 | CC[C@]1(c2cccc(N(C)c3ncccn3)c2)C2=C(CC(C)(C)NC2=O)Nc2n[nH]c(Cl)c21 [Compound 951592] | 
0.1 to 1 | > 5 | CCC1(c2cccc(C(F)(F)F)c2)C2=C(CCN(c3ncn(C)c3C)C2=O)Nc2n[nH]cc21 (centres unmarked) [Compound 951598] | 
0.1 to 1 | 0.1 to 1 | CCC1(c2cccc(-c3ccncc3F)c2)C2=C(CC(C)(C)NC2=O)Nc2n[nH]c(C(F)F)c21 (centres unmarked) [Compound 951599] | 
≤ 0.1 | 0.1 to 1 | CCC1(c2cccc(Oc3ncccn3)c2)C2=C(CC(C)(C)CC2=O)Nc2n[nH]c(C(F)(F)F)c21 (centres unmarked) [Compound 951604] | 
1 to 5 | > 5 | CC[C@@]1(c2cccc(Oc3ncccn3)c2)C2=C(CC(C)(C)NC2=O)Nc2n[nH]c(Cl)c21 [Compound 951605] | 
≤ 0.1 | ≤ 0.1 | CC[C@]1(c2cccc(Oc3ncccn3)c2)C2=C(CC(C)(C)NC2=O)Nc2n[nH]c(C(F)(F)F)c21 [Compound 951607] | IC50 [1, 7]: ≤ 0.1 µM; IC50 [2, 8]: 0.1 to 1 µM
≤ 0.1 | ≤ 0.1 | CC[C@]1(c2cccc(-c3ccncc3F)c2)C2=C(CC(C)(C)NC2=O)Nc2n[nH]c(C(F)F)c21 [Compound 951612] | IC50 [1, 7]: 0.1 to 1 µM; IC50 [2, 8]: 1 to 5 µM
0.1 to 1 | 1 to 5 | CC[C@@]1(c2cccc(N(C)c3ncccn3)c2)C2=C(CC(C)(C)NC2=O)Nc2n[nH]c(Cl)c21 [Compound 951618] | 
 |  | CC(C)S(=O)(=O)N1CCC2(CC1)C1=C(Nc3n[nH]cc32)[C@H](F)C(C)(C)CC1=O [Compound 951701] | IC50 ([1]; 1 nM GSK3α, 4 μM ATP, 30 minute preincubation, read-out: GSK3-A TR-FRET BIOCHEMICAL (TR-FRET), IC50): ≤ 0.1 µM; IC50 [1, 5]: 0.1 to 1 µM; IC50 ([2]; 1 nM GSK3b, 2 μM ATP, 30 minute preincubation, read-out: GSK3-B TR-FRET BIOCHEMICAL (TR-FRET), IC50): ≤ 0.1 µM; IC50 [2, 6]: 1 to 5 µM
≤ 0.1 | 0.1 to 1 | CCC1(c2cccc(-c3cn(C)nc3C)c2)C2=C(CC(C)(C)C2=O)Nc2n[nH]cc21 (centres unmarked) [Compound 951702] | IC50 [1, 7]: 0.1 to 1 µM; IC50 [2, 8]: > 5 µM
